Laboratory results as given in patent publication US11345659B2, “Pipecolic esters for inhibition of the proteasome” (THE BOARD OF REGENTS OF THE UNIVERSY OF TEXAS SYSTEM, priority 2018, dated 2022).

Tests used:
[1] = molecular target: T1, latent core 20 S proteasome (Homo sapiens, UniProt P25787+P25789); experiment: Competition of compound 3 with tRpt6 peptide, ChT-L activity of latent core; format: biochemical; settings: 1 μM compound 3, 2 μM tRpt6
T1 construct: purified from erythrocytes; purchased Enzo Life Sciences, Inc. (Farmingdale, N.Y.); host or cells: human erythrocytes
Excerpt: According to the most recent model of the 26 S proteasome dynamic cycle, Rpt6 succeeds the Hb-Y—X containing anchor subunits Rpt5, Rpt3, and Rpt2 in docking into the α face pockets and promoting an intermediate conformation between latent and activated (open gate) proteasomes (Dong et al. ([…]) Nature 565(7737): 49-55). […] For comparison, no competition between tRpt5, expected to occupy the α5/α6 pocket, and compound 3 was detected.
Referring to FIG. 4, the C-terminal peptide derived from Rpt6 subunit compromises inhibition of the ChT-L activity of the latent core by the compound 3; however, only when added to the proteasome prior to the inhibitor. […] 1 μM compound 3 and 2 μM tRpt6 were tested. Mean±SD; n=3 to 6.

[2] = molecular target: T2, 20 S human housekeeping proteasome (Homo sapiens, UniProt P25787+P25789); experiment: ChT-L peptidase activity of 20 S proteasome activated with Rpt5 peptide; format: biochemical; settings: tRpt5 added last (compound 3 before tRpt5), n=3
T2 construct: purified from erythrocytes; purchased Enzo Life Sciences, Inc. (Farmingdale, N.Y.); host or cells: human erythrocytes

[3] = molecular target: T3, native human 20 S core proteasome (Homo sapiens, UniProt P25787+P25789); experiment: AFM imaging of gate conformers of 20 S proteasome
T3 construct: purified from erythrocytes; purchased Enzo Life Sciences, Inc. (Farmingdale, N.Y.); host or cells: human erythrocytes
Protocol: The single molecule imaging of the 20 S proteasome was carried out as previously described, with a scanner E of the Multimode Nanoscope IIIa (Bruker Inc) (Gaczynska and Osmulski (2009) Atomic Force Microscopy as a Tool to Study the Proteasome Assemblies; Osmulski et al. (2009) Structure 17(8): 1137-1147. Available from http://www.scopus.com/inward/record.url?eid=2-s2.0-68149164657&partnerID=40&md5=dc5e413998472b20d822db9458de1955). In short, the proteasomes were deposited and electrostatically attached to a muscovite mica substrate, covered with imaging buffer (5 mM Tris/HCl, pH 7) and scanned in tapping mode in fluid using cantilevers with the spring constant of 0.35 N/m from the SNL (Sharp Nitride Lever) probes (Bruker Inc.) tuned to 9-10 kHz. Gentle scanning conditions with the amplitude setpoint in the range of 1.5-2.0V, drive voltage of 300-500 mV and 3.05 Hz scanning rate were used. Scans of 1 μm^2 fields (512×512 pixels) contained height-mode images of several dozens of top-view (“standing”) 20 S proteasome molecules. The gate status was deduced from a profile of raw height values of pixels measured by a probe scanning across the single proteasome particles. The proteasome a face that included the gate was completely rendered by a six-pixel (11-12 nm) scan-line. If the α face scan-line presented a central dip (a local minimum), the particle was classified as containing the open gate. If a plot of height values presented a concave function without a local minimum, the particle was classified as an intermediate conformer. If the function was convex, the particle was classified as containing the closed gate. The “events” of gate opening/closing were analyzed for scans of distinct particles as well as multiple scans of the same particles.
Next, AFM imaging of the native human 20 S core proteasome treated with 10 μM compound 3 was performed to get insight into the putative effects of the compound on the conformation of the α face in the single molecule fashion. In the in-liquid tapping mode AFM method, the outer shape of the α face is monitored by the ultra-sharp probe interacting […] with the protein molecule mostly by van der Waals forces (Gaczynska and Osmulski (2008) Methods Cell Biol. 90: 39-60). […] Treatment with 10 μM of rapamycin shifted the conformational equilibrium of the 20 S core from about 75% to about 50% of closed-gate molecules (Osmulski and Gaczynska (2013) Molecular pharmacology 84: 104-113). An apparent similar shift was induced by compound 3, when the partition of closed conformers dropped from 73±1% (n=4 experiments, 90 events of gate opening/closing) to 45±11% (n=6 experiments, 218 events). Moreover, upon additional refined analysis of “not closed” conformers, it was possible to distinguish the presumably open-gate forms from intermediate forms.
The putative binding site of compound 3 in the α ring pocket, identified by molecular modeling (FIG. 2) and biochemical data (FIG. 4), led to the examination of whether the inhibitor-induced conformational changes in a face gate dynamics. For this purpose, imaging of native 20 S proteasomes was employed using a previously established method of atomic force microscopy (AFM). In this method, topography of the α face of buffer-submerged proteasomes that stand on their opposite a face is rendered in real time by the ultra-sharp probe. A tip of the probe interacts with the molecules mostly by van der Waals forces (Gaczynska and Osmulski (2011) Methods Mol. Biol. 736: 117-32). The distribution of conformation types of a face is routinely accessed with sequential scans of fields of multiply randomly distributed proteasomes. Alternatively, consecutive single scan lines representing the gate status of individual particles are collected. The particles are classified as closed-gate if their a face is smooth and regularly concave (FIG. 5). […]

[4] = system: human prostate cancer PC3 cells; experiment: Efficacy study in nude mice xenografted with PC3 cells; format: in vivo; settings: 10 mg/kg intra-tumorally
Protocol: The efficacy study was performed with mice xenografted with human cultured androgen-resistant prostate cancer PC3 cells. To assure efficient monitoring of tumor growth and dissemination, the cells expressing green fluorescent protein (GFP) and luciferine were used for xenografting (Bioware Brite PC3-RedFLuc-GFP). The study involved […] nude mice. Tumor-growing mice were treated intra-tumorally (IT) with the vehicle (dimethylsulfoxide; DMSO; 8 control mice) or with 10 mg/kg of compound 3 (10 mice). Injections were carried on Mondays, Wednesdays, and Fridays. To assure accurate assessment of the tumor size, at the time of first and last treatments the mice were injected with luciferine (substrate for luciferase) and the total intensity of fluorescent product was recorded by the Xenogen IVIS Spectrum small animal imager. […] The color scale from blue (lowest) through green, yellow and red (highest) corresponds to the intensity of fluorescence emitted from the tumor and thus represents the total mass of live cancer cells. Referring to FIG. 8 right panel, median ratios of last-to-first total tumor fluorescence values are shown. Apparently, the median tumor size in controls increased nearly three-fold (ratio=3.05), whereas in the treated cohort a tumor shrinkage was recorded instead (ratio=0.62).

[5] = Pilot toxicity study in mice
Protocol: Six injections were performed on Mondays, Wednesdays, and Fridays for two weeks, and the weight and overall condition of the mice were monitored.

[6] = 10 and 30 mg/kg intravenously, six injections in two weeks

COc1cc(CCCOC(=O)[C@@H]2CCCCN2C(=O)OCc2ccccc2)cc(OC)c1OC [Compound 3, 1-benzyl 2-(3-(3,4,5-trimethoxyphenyl)propyl) (S)-piperidine-1,2-dicarboxylate]
inhibition of ChT-L of the core when tRpt6 is added before the compound [1]: significantly attenuated inhibition of the core
inhibition of the core when the compound is preincubated before addition of tRpt6 [1]: No attenuation was observed
remaining ChT-L activity [2]: 56%
abundance of gate conformers ([3]; 100 nM): increased the abundance of closed-gate conformers and rendered the open-gate forms nearly undetectable
contribution of open-gate proteasomes ([3]; 1 μM): only about a half of that observed in the control particles
particles in closed-gate conformation ([3]; 10 μM): less than a half of the particles were in the closed-gate conformation
contribution of open-gate and intermediate forms ([3]; 10 μM, compared to control): increased about twice
partition of closed conformers ([3]; 10 μM, n=6 experiments, 218 events, control 73±1%): 45±11%
number of intermediate forms ([3]; 10 μM, versus control): increased significantly
partition of open forms ([3]; 10 μM, versus control): remained remarkably steady
growth of xenografted tumor [4]: attenuated the growth of xenografted tumor
median ratio of last-to-first total tumor fluorescence ([4]; Mon/Wed/Fri, control ratio 3.05): 0.62
animals' behavior [5, 6]: No differences in the animals' behavior were noted
body weight versus control mice [5, 6]: did not differ significantly
toxicity for mice ([5]; highest tested dose 30 mg/kg): non-toxic for mice up to a highest tested dose of 30 mg/kg
